Consider 26 molecules from patent US20250074889A1, “Novel Aminobenzene Derivative Having Cancer Cell Growth Inhibitory Effect, and Preventive or Therapeutic Pharmaceutical Composition Containing Same as Active Ingredient” (Daewoong Pharmaceutical Co., Ltd., priority 2022, published 2025).

Test [1] concerns transcription factor TEAD. As to the kind of experiment: Activity inhibition test of transcription factor TEAD (ONE-Glo luciferase, TEAD reporter-MCF7 cell line). Format: cell-based. The conditions noted are these: Homo sapiens; TEAD Reporter-MCF7 cells, 24 hours treatment, luciferase luminescence. Here is the method:
The transcription factor TEAD activity of the compounds prepared in Examples was measured by the ONE-Glo™ Luciferase assay (Promega, Catalog #E6110) method using the Hippo Pathway TEAD reporter-MCF7 recombinant cell line (BPS Bioscience, Catalog #60618).
Specifically, the TEAD Reporter-MCF7 cell line contains the firefly luciferase gene whose expression is regulated under the control of TEAD response elements in the MCF7, which is a human breast cancer cell line. In the cell line, a non-phosphorylated YAP/TAZ exists in the nucleus in a non-stressed condition, which continuously induces expression of the luciferase reporter.
TEAD Reporter-MCF7 cells were prepared in 100 μL of cell culture medium (MEM medium, 10% FBS, 1% P/S, 400 μg/mL Geneticin, 1% […], 1 mM NA pyruvate, 10 μg/mL Insulin) in a white clear bottom 96-well microplate. The prepared plate was incubated in a 5% CO2 incubator at 37° C. for 24 hours, and then the previously prepared compounds of Examples were finally treated at concentrations of 0.001, 0.01, 0.1, 1, and 10 µM, which were repeated three times for all treatment solutions. The plates treated with the compounds of Examples were incubated in a 5% CO2 incubator at 37° C. for 24 hours. 100 μL/well of the substrate aqueous solution containing luciferin was added to a white clear-bottom 96 well microplate, thereby initiating an enzyme reaction. The reaction was performed at room temperature for 5 minutes, and the luminescence (integration time 1000 ms) was measured using a Flexstation3 multi-mode microplate reader. In accordance with the instructions for the ONE-Glo™ Luciferase Assay, the luciferase enzyme activity, which represents the activity of the transcription factor TEAD, was measured by a chemiluminescence method, and the inhibitory activity of the compound according to the present invention was calculated. The results of each compound were analyzed using Microsoft Excel, and the IC50 values were calculated by GraphPad Prism software.

The subject of test [2] is NCI-H226 human mesothelioma cell line. As to the kind of experiment: Cell growth inhibition test (CellTiter-Glo), NCI-H226. Format: cell-based. The conditions noted are these: NCI-H226 cells. Here is the method: The cell growth for the compounds prepared in Examples was measured by CellTiter-Glo® Luminescent Cell Viability (Promega, Catalog #G7571) method using NCI-H226 (addexbio), NCI-H28 (Korea Cell Line Bank) and MSTO-211H (elabscience) human mesothelioma cell lines. This evaluation method is a method in which when luciferase enzyme is activated by ATP flowing out from living cells, it reacts with a luciferin substrate, and the enzyme activity at this time is measured to confirm cell viability.
Specifically, NCI-H226, NCI-H28, and MSTO-211H cells were prepared in 100 μL of cell culture medium (RPMI medium, 10% FBS, 1% P/S, 4.5 g/L D-Glucose, 2.383 g/L HEPES Buffer, L-Glutamine, 1.5 g/L Sodium Bicarbonate, 110 mg/L Sodium pyruvate) in a white clear bottom 96-well microplate. The prepared plate was incubated in a 5% CO2 incubator at 37° C. for 24 hours, and then the previously prepared compounds of Examples were finally treated at concentrations of 0.001, 0.01, 0.1, 1, and 10 μM, which was repeated three times for all treatment solutions. The plates treated with the compounds of Examples were incubated in a 5% CO2 incubator at 37° C. 100 μL/well of the substrate aqueous solution containing luciferin was added to a white clear-bottom 96 well microplate, thereby initiating an enzyme reaction. The reaction was performed at room temperature in the dark for 10 minutes, and the luminescence was measured using a Flexstation3 multi-mode microplate reader. In accordance with the instructions for the CellTiter-Glo™ Luminescednt Cell Viability, the luciferase enzyme activity, which represents the amount of ATP, was measured by a chemiluminescence method, and the inhibitory activity of the compounds according to the present invention was calculated. The results of each compound were analyzed using Microsoft Excel, and the IC50 values were calculated using GraphPad Prism software.

Turning to `C=CC(=O)Nc1ccc(NC2CCCCC2)c(-c2ccccc2)c1` [Example 1, N-(6-(cyclohexylamino)-[1,1′-biphenyl]-3-yl)acrylamide], the IC50 in test [1] was found to be 0.042 µM; in test [2] it was 0.132 µM.

Take `C=CC(=O)Nc1ccc(NC2CCCCC2)c(-c2ccccn2)c1` [Example 2, N-(4-(cyclohexylamino)-3-(pyridin-2-yl)phenyl)acrylamide]: the IC50 was 0.0123 µM in test [1] and 0.046 µM in test [2].

For the molecule `C=CC(=O)Nc1ccc(N[C@H]2CC[C@@H](C(F)(F)F)CC2)c(-c2ccccn2)c1` [Example 3, N-(3-(pyridin-2-yl)-4-((cis-4-(trifluoromethyl)cyclohexyl)amino)phenyl)acrylamide], the IC50 in test [1] is 0.0037 µM; in test [2], > 10 µM.

Take `C=CC(=O)Nc1ccc(Nc2ncc(C(F)(F)F)cc2Cl)c(-c2ccccn2)c1` [Example 7, N-(4-((3-chloro-5-(trifluoromethyl)pyridin-2-yl)amino)-3-(pyridin-2-yl)phenyl)acrylamide]: the values for the IC50 in test [1] and in test [2] were 0.0535 µM and 0.122 µM, respectively.

In the case of `C=CC(=O)Nc1ccc(Nc2cc(Cl)c(Cl)cn2)c(-c2ccccn2)c1` [Example 8, N-(4-((4,5-dichloropyridin-2-yl)amino)-3-(pyridin-2-yl)phenyl)acrylamide], the IC50 turned out to be 0.0154 µM in test [1] and 0.014 µM in test [2].

`C=CC(=O)Nc1ccc(Nc2ncc(C(F)(F)F)cc2Cl)c(-c2cn(C)cn2)c1` [Example 9, N-(4-((3-chloro-5-(trifluoromethyl)pyridin-2-yl)amino)-3-(1-methyl-1H-imidazol-4-yl)phenyl)acrylamide]: the results for the IC50 in test [1] and in test [2] were 0.08 µM and 0.026 µM, respectively.

For `C=CC(=O)Nc1ccc(Nc2cc(Cl)c(Cl)cn2)c(-c2cn(C)cn2)c1` [Example 10, N-(4-((4,5-dichloropyridin-2-yl)amino)-3-(1-methyl-1H-imidazol-4-yl)phenyl)acrylamide], the concentration for half-maximal inhibition (IC50) worked out at 0.023 µM in test [1] and 0.01 µM in test [2].

Consider `C=CC(=O)Nc1ccc(NCc2ccc(F)cc2)c(-c2ccccc2)c1` [Example 11, N-(6-((4-fluorobenzyl)amino)-[1,1′-biphenyl]-3-yl)acrylamide], for which the IC50 in test [1] is 0.0282 µM; in test [2], 0.129 µM.

Consider `C=CC(=O)Nc1ccc(NCc2ccc(F)cc2)c(-c2ccccn2)c1` [Example 12, N-(4-((4-fluorobenzyl)amino)-3-(pyridin-2-yl)phenyl)acrylamide], for which the IC50 in test [1] was 0.0024 µM; in test [2] it was 1.25 µM.

As to `C=CC(=O)Nc1ccc(Nc2cc(Cl)c(Cl)cn2)c(-c2ccncn2)c1` [Example 16, N-(4-((4,5-dichloropyridin-2-yl)amino)-3-(pyrimidin-4-yl)phenyl)acrylamide], the IC50 in test [1] is 0.0691 µM; in test [2], 0.148 µM.

As to `C=CC(=O)Nc1ccc(NCCc2nccs2)c(/C=C/c2ccc(F)cc2)c1` [Example 23, (E)-N-(3-(4-fluorostyryl)-4-((2-(thiazol-2-yl)ethyl)amino)phenyl)acrylamide], the IC50 in test [1] came to 0.048 µM; in test [2], 0.055 µM.

With `C=CC(=O)Nc1cnc(NCCc2nccs2)c(/C=C/c2ccc(F)cc2)c1` [Example 27, (E)-N-(5-(4-fluorostyryl)-6-((2-(thiazol-2-yl)ethyl)amino)pyridin-3-yl)acrylamide], the values for the half-inhibitory concentration (IC50) in test [1] and in test [2] were 0.03 µM and 0.985 µM, respectively.

Regarding `C=CS(=O)(=O)Nc1cnc(NCCc2nccs2)c(/C=C/c2ccc(F)cc2)c1` [Example 28], the figures for the IC50 in test [1] and in test [2] were 0.0286 µM and 0.875 µM, respectively.

On to `C#Cc1ccc(Nc2ccc(NC(=O)C=C)cc2-c2ccn(C)n2)nc1` [Example 34, N-(4-((5-ethynylpyridin-2-yl)amino)-3-(1-methyl-1H-pyrazol-3-yl)phenyl)acrylamide], for which the IC50 in test [1] is 0.0057 µM; in test [2], 0.0314 µM.

For `C=CC(=O)Nc1cnc(Nc2ccc(C(F)(F)F)cc2)c(-c2cn(C)cn2)c1` [Example 41, N-(5-(1-methyl-1H-imidazol-4-yl)-6-((4-(trifluoromethyl)phenyl)amino)pyridin-3-yl)acrylamide], the 50% inhibitory concentration (IC50) in test [1] amounted to 0.01 µM; in test [2], 0.006 µM.

Regarding `C=CC(=O)Nc1ccc(Nc2ccc(C(F)(F)F)cc2)c(-c2ccn(C)n2)c1` [Example 42, N-(3-(1-methyl-1H-pyrazol-3-yl)-4-((4-(trifluoromethyl)phenyl)amino)phenyl)acrylamide], the IC50 in test [1] was 0.007 µM; in test [2], 0.0047 µM.

As to `C=CC(=O)Nc1ccc(Nc2ccc(C(F)(F)F)c(Cl)c2)c(-c2cn(C)cn2)c1` [Example 43, N-(4-((3-chloro-4-(trifluoromethyl)phenyl)amino)-3-(1-methyl-1H-imidazol-4-yl)phenyl)acrylamide], the concentration for half-maximal inhibition (IC50) in test [1] was 0.033 µM; in test [2] it was 0.0074 µM.

`C=CC(=O)Nc1ccc(Nc2ccc(C(F)(F)F)c(F)c2F)c(-c2cn(C)cn2)c1` [Example 44, N-(4-((2,3-difluoro-4-(trifluoromethyl)phenyl)amino)-3-(1-methyl-1H-imidazol-4-yl)phenyl)acrylamide]: the IC50 came out at 0.008 µM in test [1] and 0.0039 µM in test [2].

For the molecule `C=CC(=O)Nc1ccc(Nc2ccc(OC(F)(F)F)cc2)c(-c2cn(C)cn2)c1` [Example 45, N-(3-(1-methyl-1H-imidazol-4-yl)-4-((4-(trifluoromethoxy)phenyl)amino)phenyl)acrylamide], the values for the IC50 in test [1] and in test [2] were 0.113 µM and 0.0338 µM, respectively.

With `C=CC(=O)Nc1ccc(Nc2cc(F)c(C(F)(F)F)c(F)c2)c(-c2cn(C)cn2)c1` [Example 46, N-(4-((3,5-difluoro-4-(trifluoromethyl)phenyl)amino)-3-(1-methyl-1H-imidazol-4-yl)phenyl)acrylamide], the 50% inhibitory concentration (IC50) in test [1] turned out to be 0.028 µM; in test [2] it was 0.0131 µM.

As for `C=CC(=O)Nc1ccc(Nc2ccc(Cl)cc2)c(-c2cn(C)cn2)c1` [Example 47, N-(4-((4-chlorophenyl)amino)-3-(1-methyl-1H-imidazol-4-yl)phenyl)acrylamide], the results for the IC50 in test [1] and in test [2] were 0.0039 µM and 0.0033 µM, respectively.

Turning to `C=CC(=O)Nc1ccc(Nc2ccc(Br)c(C)n2)c(-c2cn(C)cn2)c1` [Example 48, N-(4-((5-bromo-6-methylpyridin-2-yl)amino)-3-(1-methyl-1H-imidazol-4-yl)phenyl)acrylamide], the IC50 in test [1] was 0.045 µM; in test [2], 0.0103 µM.

With `C=CC(=O)Nc1ccc(Nc2ccc(Cl)c(C)n2)c(-c2cn(C)cn2)c1` [Example 49, N-(4-((5-chloro-6-methylpyridin-2-yl)amino)-3-(1-methyl-1H-imidazol-4-yl)phenyl)acrylamide], the figures for the IC50 in test [1] and in test [2] were 0.258 µM and 0.0188 µM, respectively.

With `C=CC(=O)Nc1ccc(Nc2ccc(Cl)cn2)c(-c2cn(C)cn2)c1` [Example 50, N-(4-((5-chloropyridin-2-yl)amino)-3-(1-methyl-1H-imidazol-4-yl)phenyl)acrylamide], the results for the IC50 in test [1] and in test [2] were 0.088 µM and 0.0104 µM, respectively.

Regarding `C=CC(=O)Nc1ccc(Nc2cc(C(F)(F)F)ccn2)c(-c2ccn(C)n2)c1` [Example 54, N-(3-(1-methyl-1H-pyrazol-3-yl)-4-((4-(trifluoromethyl)pyridin-2-yl)amino)phenyl)acrylamide], the IC50 in test [1] came out at 0.0234 µM; in test [2], 0.0118 µM.

In the case of `C=CC(=O)Nc1ccc(Nc2ncc(C(F)(F)F)cc2F)c(-c2ccn(C)n2)c1` [Example 56, N-(4-((3-fluoro-5-(trifluoromethyl)pyridin-2-yl)amino)-3-(1-methyl-1H-pyrazol-3-yl)phenyl)acrylamide], the IC50 came to 0.005 µM in test [1] and 0.011 µM in test [2].
